Data from patent publication EP4656185A1, “NOVEL MOLECULAR ASSEMBLY OF AXITINIB” (Scai Therapeutics Co., Ltd., priority 2024, dated 2025).

Assay: Solubility (dissolution concentration) of axitinib polymorph at pH 1 and pH 2
Type: physicochemical
Experimental: Experimental Example 4. Solubility of new axitinib polymorph (SCAI-Form)
Method for measuring solubility at pH 1: Stirred for 15 minutes at a concentration of 5 mg/mL, and then filtered, diluted 10 times with DW, and analyzed. (The value calculated as [measured value x 10] is described in the results)
Method for measuring solubility at pH 2: Stirred for 15 minutes at a concentration of 1 mg/mL, and then filtered, analyzed, and shown in Table 6.

| solubility of SCAI-Form relative to API (comparison with Axitinib API, from Table 6 (pH 1 and pH 2)) | Compound | Dissolution concentration at pH 1 (pH 1, stirred for 15 minutes at 5 mg/mL, filtered, diluted 10 times with DW, value = measured value x 10) | Dissolution concentration at pH 2 (pH 2, stirred for 15 minutes at 1 mg/mL, filtered, analyzed) |
| --- | --- | --- | --- |
| – | 6-[2-(methylcarbamoyl)phenylsulfanyl]-3-E-[2-(pyridin-2-yl)ethenyl]indazole [API] | 2.661 mg/mL | 0.073 mg/mL |
| about twice higher | CNC(=O)c1ccccc1Sc1ccc2c(/C=C/c3ccccn3)n[nH]c2c1 [SCAI-Form, axitinib] | – | – |
